Legend:
[1] = system: Staphylococcus aureus (S. aureus) 11540 strain; assay: standard microdilution assay to determine minimum inhibitory concentrations (MICs), S. aureus; assay type: cell-based
Procedure: (§1) The in vitro activity of the compounds of the present disclosure can be determined. Antimicrobial testing is typically performed to determine the minimum inhibitory concentration (MIC). Minimum inhibitory concentrations (MICs) are determined by the microdilution method in a final volume of 100 μl according to protocols outlined by The Clinical and Laboratory Standards Institute (CLSI). Performance standards for reference strains are assessed within the same experimental design to maintain quality control. See, for example, Clinical Laboratory Standards Institute: Methods for dilution antimicrobial susceptibility tests for bacteria that grow aerobically M7-A8. Approved Standard-Eighth Edition. Wayne, PA: CLSI; December 2008: and Clinical Laboratory Standards Institute: Performance Standards for Antimicrobial Susceptibility Testing M100-S20; Approved Standard-Twentieth Edition. Wayne, PA: CLSI; June 2010. The compounds of the present disclosure were tested for antimicrobial activity. The Compounds 1-122 were run against Eschericia coli (E. coli) strain ATCC25922 and against Staphylococcus aureus (S. aureus) 11540 strain using a standard microdilution assay to determine minimum inhibitory concentrations (MICs). […] It will be recognized by one skilled in the art that the compounds can be assessed against other bacterial organisms and that the presentation of data for activity against Eschericia coli and Staphylococcus aureus are illustrative and in no way is intended to limit the scope of the present disclosure. The compounds of the present disclosure can be assayed against a range of other microorganisms depending upon the performance activity desired to be gathered. Furthermore, the “+” and “−” representation and the selection of a cutoff value of 16 micrograms/mL is also illustrative and in no way is intended to limit the scope of the present disclosure.

[2] = system: Eschericia coli (E. coli) strain ATCC25922; assay: standard microdilution assay to determine minimum inhibitory concentrations (MICs), E. coli; assay type: cell-based; settings: Escherichia coli
Procedure: as §1

Compound	MIC [1]	MIC [2]
C[C@H](N)CCCc1cc(Cl)c(F)c(-c2cc3cn(-c4ccc([C@@H]5CCCCN5CCCSC(=N)N)cc4)c(=O)nc3[nH]2)c1 [Compound 12]	≤ 16 µg/mL	≤ 16 µg/mL
C[C@H](N)CCCc1cc(Cl)c(F)c(-c2cc3cn(-c4ccc([C@@H]5CCCC[C@@H](CCSC(=N)N)N5)cc4)c(=O)nc3[nH]2)c1 [Compound 52]	≤ 16 µg/mL	≤ 16 µg/mL
C[C@H](N)CCCc1cc(-c2cc3cn(-c4ccc([C@@H]5CCC[C@@H](CCSC(=N)N)N5)cc4)c(=O)nc3[nH]2)cc(C2CC2)c1 [Compound 99]	≤ 16 µg/mL	≤ 16 µg/mL
C[C@H](N)CCCc1cc(Cl)c(F)c(-c2cc3cn(-c4ccc([C@@H]5CCC[C@@H](CCSC(=N)N)N5CCCSC(=N)N)cc4)c(=O)nc3[nH]2)c1 [Compound 19]	≤ 16 µg/mL	≤ 16 µg/mL
CO[C@@H]1CC(c2cc3cn(-c4ccc([C@@H]5CCC[C@@H](CCSC(=N)N)N5)cc4)c(=O)nc3[nH]2)N(CCC[C@H](C)N)C1 (some centres unmarked) [Compound 57]	≤ 16 µg/mL	≤ 16 µg/mL
C[C@H](N)CCCN1C(c2cc3cn(-c4ccc([C@@H]5CCC[C@@H](CCSC(=N)N)N5)cc4)c(=O)nc3[nH]2)C[C@@H]2CCCC[C@@H]21 (some centres unmarked) [Compound 62]	≤ 16 µg/mL	≤ 16 µg/mL
C[C@H]1CC(c2cc3cn(-c4ccc([C@@H]5CCC[C@@H](CCSC(=N)N)N5)cc4)c(=O)nc3[nH]2)N(CCC[C@@H](C)N)C1 (some centres unmarked) [Compound 67]	≤ 16 µg/mL	≤ 16 µg/mL
C[C@H](N)CCCc1cc(-c2cc3cn(-c4ccc([C@@H]5CCC[C@@H](CCSC(=N)N)N5)cc4)c(=O)nc3[nH]2)cc(C(C)(C)C)c1 [Compound 86]	≤ 16 µg/mL	≤ 16 µg/mL
C[C@H](N)CCCc1cc(Cl)c(F)c(-c2cc3cn(-c4ccc([C@@H]5CCC[C@@H](CCSC(=N)N)N5CCCF)cc4)c(=O)nc3[nH]2)c1 [Compound 4]	≤ 16 µg/mL	≤ 16 µg/mL
C[C@H](O)CNCc1cc(Cl)c(F)c(-c2cc3cn(-c4ccc([C@@H]5CCC[C@@H](CCSC(=N)N)N5)cc4)c(=O)nc3[nH]2)c1 [Compound 30]	≤ 16 µg/mL	≤ 16 µg/mL
N=C(N)SCCCN1[C@H](CCSC(=N)N)CCC[C@H]1c1ccc(-n2cc3cc(-c4cc(CCC[C@@H](N)C5CC5)cc(Cl)c4F)[nH]c3nc2=O)cc1 [Compound 20]	≤ 16 µg/mL	≤ 16 µg/mL
N=C(N)SCC[C@@H]1CCC[C@@H](c2ccc(-n3cc4cc(-c5cc(CCC[C@@H](N)C6CC6)cc(Cl)c5F)[nH]c4nc3=O)cc2)N1 [Compound 1]	≤ 16 µg/mL	≤ 16 µg/mL
C=C[C@H](N)CCCc1cc(Cl)c(F)c(-c2cc3cn(-c4ccc([C@@H]5CCC[C@@H](CCSC(=N)N)N5)c(F)c4)c(=O)nc3[nH]2)c1 [Compound 36]	≤ 16 µg/mL	≤ 16 µg/mL
C[C@H](N)CCCN1C=C(c2cc3cn(-c4ccc([C@@H]5CCC[C@@H](CCSC(=N)N)N5)cc4)c(=O)nc3[nH]2)CCC1 [Compound 58]	≤ 16 µg/mL	≤ 16 µg/mL
CN[C@H]1CNC(c2cc3cn(-c4ccc([C@@H]5CCC[C@@H](CCSC(=N)N)N5)cc4)c(=O)nc3[nH]2)C1 (some centres unmarked) [Compound 83]	≤ 16 µg/mL	≤ 16 µg/mL
N=C(N)SCC[C@@H]1CCC[C@@H](c2ccc(-n3cc4cc(-c5cc(CCC[C@@H](N)C6CC6)cc(Cl)c5F)[nH]c4nc3=O)cc2)N1CCCF [Compound 5]	≤ 16 µg/mL	≤ 16 µg/mL
CC(C[C@@H]1CCC[C@@H](c2ccc(-n3cc4cc(-c5cc(CCC[C@H](C)N)cc(Cl)c5F)[nH]c4nc3=O)cc2)N1)SC(=N)N (some centres unmarked) [Compound 78]	≤ 16 µg/mL	≤ 16 µg/mL
C[C@H](N)CCCc1cc(Cl)c(F)c(-c2cc3cn(-c4ccc([C@H]5C[C@H](CCSC(=N)N)CN5CCCF)cc4)c(=O)nc3[nH]2)c1 [Compound 117]	≤ 16 µg/mL	≤ 16 µg/mL
C[C@@H](N)CCCN1C(c2cc3cn(-c4ccc([C@@H]5CCC[C@@H](CCSC(=N)N)N5)cc4)c(=O)nc3[nH]2)CC[C@@H]1c1ccccc1 (some centres unmarked) [Compound 77]	> 16 µg/mL	≤ 16 µg/mL
N=C(N)SCC[C@@H]1CCC[C@@H](c2ccc(-n3cc4cc(-c5cc(CCC[C@@H](N)C6CC6)cc(Cl)c5F)[nH]c4nc3=O)cc2F)N1 [Compound 25]	≤ 16 µg/mL	≤ 16 µg/mL
C[C@@H](CO)CN1[C@H](CCSC(=N)N)CCC[C@H]1c1ccc(-n2cc3cc(-c4cc(CCC[C@H](C)N)cc(Cl)c4F)[nH]c3nc2=O)cc1 [Compound 101]	≤ 16 µg/mL	≤ 16 µg/mL
COc1ccc(OC[C@H](N)CCCc2cc(Cl)c(F)c(-c3cc4cn(-c5ccc([C@@H]6CCC[C@@H](CCSC(=N)N)N6)cc5)c(=O)nc4[nH]3)c2)cc1 [Compound 39]	≤ 16 µg/mL	≤ 16 µg/mL
C[C@@H](N)CCCN1C[C@H](Cc2ccccc2)CC1c1cc2cn(-c3ccc([C@@H]4CCC[C@@H](CCSC(=N)N)N4)cc3)c(=O)nc2[nH]1 (some centres unmarked) [Compound 76]	≤ 16 µg/mL	≤ 16 µg/mL
C[C@H](N)CCCc1cc(Cl)c(F)c(-c2cc3cn(-c4ccc([C@H]5C[C@H](CCSC(=N)N)C(=O)N5C)cc4)c(=O)nc3[nH]2)c1 [Compound 115]	≤ 16 µg/mL	> 16 µg/mL
CCSC(=N)NCC[C@@H]1CCC[C@@H](c2ccc(-n3cc4cc(-c5cc(CCC[C@H](C)N)cc(Cl)c5F)[nH]c4nc3=O)cc2)N1 [Compound 118]	≤ 16 µg/mL	≤ 16 µg/mL
CC(=O)c1cc(CCC[C@H](C)N)cc(-c2cc3cn(-c4ccc([C@@H]5CCC[C@@H](CCSC(=N)N)N5)cc4)c(=O)nc3[nH]2)c1 [Compound 92]	≤ 16 µg/mL	≤ 16 µg/mL
CCc1c(F)c(CCC[C@H](C)N)cc(-c2cc3cn(-c4ccc([C@@H]5CCC[C@@H](CCSC(=N)N)N5)cc4)c(=O)nc3[nH]2)c1F [Compound 104]	≤ 16 µg/mL	≤ 16 µg/mL
CSCCN1[C@H](CCSC(=N)N)CCC[C@H]1c1ccc(-n2cc3cc(-c4cc(CCC[C@H](C)N)cc(Cl)c4F)[nH]c3nc2=O)cc1 [Compound 91]	≤ 16 µg/mL	≤ 16 µg/mL
